# From patent US20110182850A1, “ORGANIC COMPOUNDS AND THEIR USES” (priority 2009, published 2011)
# Target: T1, HCV NS3-4A serine protease (full-length NS3-4A protein, genotype 1a, strain HCV-1) (Hepatitis C virus genotype 1a, UniProt P26664)
# T1 construct: using the full-length NS3-4A protein (genotype 1a, strain HCV-1)
# Assay: HCV NS3-4A protease assay
# Format: biochemical
# Conditions: Protease IC50
# Procedure: The inhibitory activity of certain compounds of Table A against HCV NS3-4A serine protease is determined in a homogenous assay using the full-length NS3-4A protein (genotype 1a, strain HCV-1) and a commercially available internally-quenched fluorogenic peptide substrate as described by Taliani, M., et al. 1996 Anal. Biochem. 240:60-67, which is incorporated by reference in its entirety.
# T1 sequence (P26664 1658-1711): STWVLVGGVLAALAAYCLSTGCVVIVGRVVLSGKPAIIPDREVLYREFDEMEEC
# T1 sequence (P26664 1027-1657): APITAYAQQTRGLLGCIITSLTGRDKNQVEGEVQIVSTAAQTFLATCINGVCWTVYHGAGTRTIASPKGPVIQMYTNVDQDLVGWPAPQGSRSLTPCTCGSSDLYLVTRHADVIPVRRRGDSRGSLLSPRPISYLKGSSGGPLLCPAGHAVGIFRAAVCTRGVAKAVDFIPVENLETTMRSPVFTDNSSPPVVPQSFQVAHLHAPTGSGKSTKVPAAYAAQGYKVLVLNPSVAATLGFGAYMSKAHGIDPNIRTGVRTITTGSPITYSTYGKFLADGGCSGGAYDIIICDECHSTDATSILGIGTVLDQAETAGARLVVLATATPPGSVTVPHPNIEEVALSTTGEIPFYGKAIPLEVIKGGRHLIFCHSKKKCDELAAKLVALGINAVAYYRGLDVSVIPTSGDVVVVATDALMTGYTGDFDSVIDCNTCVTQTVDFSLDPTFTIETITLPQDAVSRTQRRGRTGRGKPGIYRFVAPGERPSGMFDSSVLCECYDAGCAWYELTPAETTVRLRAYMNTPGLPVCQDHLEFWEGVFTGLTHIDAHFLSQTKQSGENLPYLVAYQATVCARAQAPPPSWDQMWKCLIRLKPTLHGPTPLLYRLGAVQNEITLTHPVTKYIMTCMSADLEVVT
row,Molecule,IC50 [nM]
1,"C=C[C@@H]1C[C@]1(NC(=O)[C@@H]1C[C@@]2(CN1C(=O)[C@@H](NC(=O)[C@@H](NC(=O)c1cc(C(C)(C)C)n[nH]1)C(C)(C)C)C(C)(C)C)C(C)(C)C21CCC1)C(=O)NS(=O)(=O)C1CC1 [Compound 138, (5R,8S)-7-[(2S)-2-{[(2S)-2-{[(3-tert-butyl-1H-pyrazol-5-yl)carbonyl]amino}-3,3-dimethylbutanoyl]amino}-3,3-dimethylbutanoyl]-N-{(1R,2S)-1-[(cyclopropylsulfonyl)carba-moyl]-2-vinylcyclopropyl}-10,10-dimethyl-7-azadispiro[3.0.4.1]decane-8-carboxamide]",5.5
2,"C=C[C@@H]1C[C@]1(NC(=O)[C@@H]1C[C@@]2(CN1C(=O)[C@@H](NC(=O)[C@@H](NC(=O)C1CN(C(C)C)C1)C(C)(C)C)C(C)(C)C)C(C)(C)C21CCC1)C(=O)NS(=O)(=O)C1CC1 [Compound 139, (5R,8S)-N-{(1R,2S)-1-[(cyclopropylsulfonyl)carba-moyl]-2-vinylcyclopropyl}-7-[(2S)-2-{[(2S)-2-{[(1-isopropylazetidin-3-yl)carbonyl]amino}-3,3-dimethylbutanoyl]amino}-3,3-dimethylbutanoyl]-10,10-dimethyl-7-azadispiro[3.0.4.1]decane-8-carboxamide]",15
3,"C=C[C@@H]1C[C@]1(NC(=O)[C@@H]1C[C@@]2(CN1C(=O)[C@@H](NC(=O)[C@@H](NC(=O)[C@H]1CCCN1C(C)C)C(C)(C)C)C(C)(C)C)C(C)(C)C21CCC1)C(=O)NS(=O)(=O)C1CC1 [Compound 140, (5R,8S)-N-{(1R,2S)-1-[(cyclopropylsulfonyl)carba-moyl]-2-vinylcyclopropyl}-7-[(2S)-2-{[(2S)-2-({[(2R)-1-isopropylpyrrolidin-2-yl]carbonyl}amino)-3,3-dimethylbutanoyl]amino}-3,3-dimethylbutanoyl]-10,10-dimethyl-7-azadispiro[3.0.4.1]decane-8-carboxamide]",1.5
4,"C=C[C@@H]1C[C@]1(NC(=O)[C@@H]1C[C@@]2(CN1C(=O)[C@@H](NC(=O)[C@@H](NC(=O)[C@@H]1CCCN1C(C)C)C(C)(C)C)C(C)(C)C)C(C)(C)C21CCC1)C(=O)NS(=O)(=O)C1CC1 [Compound 141, (5R,8S)-N-{(1R,2S)-1-[(cyclopropylsulfonyl)carba-moyl]-2-vinylcyclopropyl}-7-[(2S)-2-{[(2S)-2-({[(2S)-1-isopropylpyrrolidin-2-yl]carbonyl}amino)-3,3-dimethylbutanoyl]amino}-3,3-dimethylbutanoyl]-10,10-dimethyl-7-azadispiro[3.0.4.1]decane-8-carboxamide]",2
5,"C=C[C@@H]1C[C@]1(NC(=O)[C@@H]1C[C@@]2(CN1C(=O)[C@@H](NC(=O)[C@@H](NC(=O)[C@H]1CCCCN1C(C)C)C(C)(C)C)C(C)(C)C)C(C)(C)C21CCC1)C(=O)NS(=O)(=O)C1CC1 [Compound 142, (5R,8S)-N-{(1R,2S)-1-[(cyclopropylsulfonyl)carba-moyl]-2-vinylcyclopropyl}-7-[(2S)-2-{[(2S)-2-({[(2R)-1-isopropylpiperidin-2-yl]carbonyl}amino)-3,3-dimethylbutanoyl]amino}-3,3-dimethylbutanoyl]-10,10-dimethyl-7-azadispiro[3.0.4.1]decane-8-carboxamide]",3
6,"C=C[C@@H]1C[C@]1(NC(=O)[C@@H]1C[C@@]2(CN1C(=O)[C@@H](NC(=O)[C@@H](NC(=O)[C@@H]1COCCN1C(C)C)C(C)(C)C)C(C)(C)C)C(C)(C)C21CCC1)C(=O)NS(=O)(=O)C1CC1 [Compound 143, (5R,8S)-N-{(1R,2S)-1-[(cyclopropylsulfonyl)carba-moyl]-2-vinylcyclopropyl}-7-[(2S)-2-{[(2S)-2-({[(3S)-4-isopropylmorpholin-3-yl]carbonyl}amino)-3,3-dimethylbutanoyl]amino}-3,3-dimethylbutanoyl]-10,10-dimethyl-7-azadispiro[3.0.4.1]decane-8-carboxamide]",4
7,"C=CCC1(S(=O)(=O)NC(=O)[C@@]2(NC(=O)[C@@H]3C[C@@]4(CN3C(=O)[C@@H](NC(=O)[C@@H](NC(=O)[C@@H]3CCCCN3C(C)C)C3CCCCC3)C(C)(C)C)C(C)(C)C43CCC3)C[C@H]2C=C)CC1 [Compound 144, (5R,8S)-N-[(1R,2S)-1-{[(1-allylcyclopropyl)sulfonyl]carba-moyl}-2-vinylcyclopropyl]-7-[(2S)-2-{[(2S)-2-cyclohexyl-2-({[(2S)-1-isopropylpiperidin-2-yl]carbonyl}amino)acetyl]amino}-3,3-dimethylbutanoyl]-10,10-dimethyl-7-azadispiro[3.0.4.1]decane-8-carboxamide]",1

# Same assay, conditions: read-out: Protease IC50
row,Molecule,IC50 [nM]
1,"(5R,8S)-7-[(2S)-2- ({cyclohexyl[(1H-pyrazol-4- ylcarbonyl)amino]acetyl} amino)-3,3-dimethylbutanoyl]-N- {(1R,2S)-1- [(cyclopropylsulfonyl)carba- moyl]-2-vinylcyclopropyl}- 10,10-dimethyl-7- azadispiro[3.0.4.1]decane-8- carboxamide [Compound 106]",1
2,"(5R,8S)-7-[(2S)-2-{[(2S)-2- cyclohexyl-2-({[(2S)-1- isopropylpiperidin-2- yl]carbonyl}amino)acetyl] amino}-3,3-dimethylbutanoyl]-N- {(1R,2S)-1- [(cyclopropylsulfonyl)carba- moyl]-2-vinylcyclopropyl}- 10,10-dimethyl-7- azadispiro[3.0.4.1]decane-8- carboxamide [Compound 21]",0.5
3,"(5R,8S)-7-[(2S)-2-{[{[(5- chloro-1H-indol-2- yl)carbonyl]amino}(cyclohex- yl)acetyl]amino}-3,3- dimethylbutanoyl]-N- {(1R,2S)-1- [(cyclopropylsulfonyl)carba- moyl]-2-vinylcyclopropyl}- 10,10-dimethyl-7- azadispiro[3.0.4.1]decane-8- carboxamide [Compound 129]",15
4,"(5R,8S)-7-{(2S)-2- [(cyclohexyl{[(1- methylcyclohexyl)carbonyl] amino}acetyl)amino]-3,3- dimethylbutanoyl}-N- {(1R,2S)-1- [(cyclopropylsulfonyl)carba- moyl]-2-vinylcyclopropyl}- 10,10-dimethyl-7- azadispiro[3.0.4.1]decane-8- carboxamide [Compound 128]",5
5,"(5R,8S)-N-{(1R,2S)-1- [(cyclopropylsulfonyl)carba- moyl]-2-vinylcyclopropyl}-7- [(2S)-2-({(2S)-3,3-dimethyl- 2-[(piperidin-1- ylcarbonyl)amino]butanoyl} amino)-3,3-dimethylbutanoyl]- 10,10-dimethyl-7- azadispiro[3.0.4.1]decane-8- carboxamide [Compound 57]",25
